Test results: a melting point compilation (Tetko et al.; mined from patent text by program, amines drawn as free bases though some values may be those of a salt)
Residues, ends and D or L forms follow the SMILES beside them. *: point of attachment. Tos = Cc1ccc(S(=O)(=O)*)cc1

Row | melting point [°C] | Structure (SMILES)
1 | 272 | Cc1cc(-c2cc(C(F)(F)F)n3ncc(C(=O)Nc4nc(C)c(S(=O)(=O)NC(C)(C)CO)s4)c3n2)ccc1C(F)(F)F
2 | 187 | CC(C)NCC(O)COc1ccc2c(=O)cc(-c3ccc(O)c(O)c3)oc2c1 (stereo not drawn)
3 | 102 to 103 | CNC(=O)S(=O)(=O)Nc1sc(CC(C)C)cc1-c1ccc(Cn2c(-c3ccccc3)nc(OC)c2C=O)cc1
4 | 101 to 104 | CN1CCc2ccccc2C1=NNC(=O)Nc1ccc(C(F)(F)F)cc1
5 | 117 to 119 | CCN(CC)CC(=O)N1CCn2c(c(-c3ccccc3)c3cc(Cl)ccc32)C1
6 | 202 to 205 | CN1C(=O)N(C)C(Cc2c[nH]c3ccccc23)C1CCc1cc(C(F)(F)F)cc(C(F)(F)F)c1 (stereo not drawn)
7 | 128 to 132 | CC(C)=CCOc1c(-c2ccc(S(C)(=O)=O)cc2)cnn(-c2ccc(F)cc2)c1=O
8 | 117 | Cc1ccc(C=Cc2ccccc2)cc1
9 | 135 to 136 | Cc1oc(-c2ccccc2)nc1CCOc1ccc(CN(O)C(N)=O)cc1F
10 | 163 to 166 | CCn1c(=N)c(F)cn(S(=O)(=O)c2ccccc2)c1=O
11 | 135 | CCOC(=O)c1oc(-c2ccccc2)cc(=O)c1Br
12 | 70 | CC(C)(C)OC(=O)[C@H]1C[C@@H](C(=O)OCc2ccccc2)[C@@H](c2ccccc2)N1 (racemic)
13 | 139 to 140 | CC(C)(C)OC(=O)N[C@H]1CC[C@H](CCN2CCN(c3cc(C#N)cc(C(F)(F)F)c3)CC2)CC1
14 | 155 to 157 | COc1ccc2c(c1)OC(CNCCCOc1ccc3c(=O)ccoc3c1)CO2 (stereo not drawn)
15 | 194 to 196 | O=C(O)Cc1cn(C(=O)c2cccc(C(F)(F)F)c2)c2cc(Cl)ccc12
16 | 133 to 135 | Cc1ccc(S(=O)(=O)Nc2cccc(-c3cc(O)c(SCCc4ccccc4)c(=O)o3)c2)cc1
17 | 217 to 220 | COC(=O)c1cn(-c2ccc(F)cc2)c(-c2ccc(N(C)C)c(C)c2)cc1=O
18 | 167 to 168 | Nc1nc(C2CCN(C(=O)Cc3ccc4c(c3)OCO4)CC2)c2ccccc2n1
19 | 112 to 114 | COc1cc(-c2ccc(C(F)(F)F)cc2)c(C(C)=NOCc2ccc([N+](=O)[O-])cc2)cc1O
20 | 120 to 121 | Oc1ccccc1-c1cc(-c2ccc3c(c2)OCO3)cc(-c2ccsc2)n1
21 | 154 | CC(C)CC(=O)OC1c2ccccc2C(=O)N1c1ccc2ccc(Cl)nc2n1 (stereo not drawn)
22 | 192 to 196 | CC(=C1SC(=O)NC1=O)c1ccc(OCCOc2c(-c3cc(F)ccc3C)n(C)c3ccccc3c2=O)cc1
23 | 139 to 140 | Cc1oc(-c2ccccc2)nc1COc1ccc(Cn2cc(CCC(=O)O)c(-c3ccc(F)cc3)n2)cc1
24 | 198 to 199 | N#Cc1ccc2c(c1)C1(COc3cc4c(cc31)OCCO4)C(=O)N2Cc1ccccn1 (stereo not drawn)

Second part, the compound before the results:

Row | Structure (SMILES) | melting point [°C]
25 | CC1(C(=O)c2c[nH]c3ncc(-c4cccc(N5CCN(S(C)(=O)=O)CC5)c4)nc23)CCCCC1 | 230 to 231
26 | CC(=O)n1cc(Cl)c(-c2ccccc2Cl)c1 | 82 to 84
27 | CCOc1cc(OCC)nc(N2CCN(Cc3ccc(CNC(C)=O)cc3)CC2)n1 | 119 to 120
28 | CN(CCSCc1n[nH]c(CSCCN(C)C(N)=S)n1)C(N)=S | 133 to 135
29 | CCOC(C)Oc1ccc2c(c1C=O)OCO2 (stereo not drawn) | 48 to 50
30 | Cc1ccc(S(=O)(=O)N[C@@H](CCC(=O)O)C(=O)N[C@@H](Cc2ccc(O)cc2)C(=O)O)cc1 (Tos-Glu-Tyr-OH) | 173 to 175
31 | NNc1nccc(-c2ccc(OC3CCOCC3)c(Cl)c2)c1Cl | 173
32 | CN(C)Cc1nc(C(N)=O)nn1-c1ccc(Cl)cc1C(=O)c1ccccc1Cl | 177 to 180
33 | CN(C)c1ccc(NC(=O)N(C)c2cccc(-c3ccc(CC(Nc4ccccc4C(=O)c4ccccc4)C(=O)O)cc3)c2)cc1 (stereo not drawn) | 130
34 | CC[C@H](CCC(=O)OC(C)(C)C)C(=O)N[C@@H](Cc1ccccc1)C(=O)OC | 120 to 121
35 | COc1cccc(CCNC(=O)N2CCC(Nc3ccc(CCNC[C@H](O)COc4ccc(O)cc4)cc3)CC2)c1 | 103 to 108
36 | CCCCOc1nc(N)c2nc(OC)n(CCCBr)c2n1 | 200 to 201
37 | Oc1c2c(c3nccc4c3c1CCC4)CCCC2 | 224
38 | CCOC(=O)C(=NOC)c1nc(Cl)cc(NC=O)n1 | 116 to 119
39 | COc1cc(-c2cc(=O)c3c(OC)cc(OC)c(C4=CCN(C)CC4)c3o2)cc(OC)c1OC | 211 to 212
40 | c1ccc2c(c1)nc(N1CCOCC1)c1c(-c3noc(C4CC4)n3)ncn12 | 169 to 173
41 | CS(=O)(=S)OCc1ccc(C(=O)O)cc1 (stereo not drawn) | 188
42 | CC(=O)NCCCCc1ccc(C(=O)C(C)Cl)cc1 (stereo not drawn) | 66 to 67
43 | N#CCCCSc1cccc(NC(N)=NCC(F)(F)F)n1 | 89 to 91
44 | CCCC[C@@H](NC(=O)[C@H](Cc1ccc(O)cc1)NC(=O)OC(C)(C)C)C(=O)NCC(=O)Oc1c(Cl)c(Cl)c(Cl)c(Cl)c1Cl | 175 to 177
45 | CC(C)(c1ccccc1)C(n1ccnc1)S(=O)c1ccc(Cl)cc1 (stereo not drawn) | 125 to 127
46 | Fc1ccc(-c2ccn(C3CC4CCC(C3)N4)c2-c2ccncc2)cc1 (stereo not drawn) | 204 to 205

Row | Structure (SMILES) | melting point [°C]
47 | CCCc1cc(=O)oc2c(C(C)=O)c(O)cc(O)c12 | 221 to 224
48 | O=C(c1ccccc1Cl)P1(=O)Oc2ccccc2-c2ccccc21 (stereo not drawn) | 108 to 110
49 | CCOC(=O)CN1C(=O)C(NC(=O)OCc2ccccc2)N=C(c2ccccc2)c2ccccc21 (stereo not drawn) | 65 to 66
50 | CCOC(=O)N1CCc2nc3ccccc3c(Cl)c2CC1 | 104
51 | CCSc1cc(C=NO)c(Cl)cn1 | 128 to 130
52 | Nc1nc(NCC2CC2)c2ncn(C3C=CC(CO)C3)c2n1 (stereo not drawn) | 130 to 131
53 | CC(=O)N(C=CC(=Nc1ccccc1)Oc1ccccc1)c1ccccc1 | 120
54 | NNC(=O)c1ccn2ncnc2c1 | 244 to 245
55 | CNC(=O)[C@@H]1CCCC[C@@H]1Nc1nc(Cl)ncc1Cl (relative stereo) | 108
56 | CC1(C)CC1C(=O)NC(=CCCCSc1ncccc1O)C(=O)O (stereo not drawn) | > 70
57 | COc1ccc(C=CC(=O)c2ccc(O)cc2)c(OC)c1 | 165 to 166
58 | CC(C)(C)OC(=O)c1ncn2c1[C@@H]1CCCN1C(=O)c1c-2ccc(Cl)c1Cl | 213 to 214
59 | CNc1ncnc2c1ncn2C1OC(CO)C(O)C1F (stereo not drawn) | 140
60 | CC(=Cc1ccc(Br)cc1)c1ccc2c(C)c(C)c(C)c(C)c2c1 | 133 to 136
61 | CCOC(=O)C(C)Oc1ccc([N+](=O)[O-])cc1 (stereo not drawn) | 55 to 56
62 | CCCCOc1ccc(NC(=O)c2cnc(C(=O)OC)c(OC)c2)cc1 | 138 to 141
63 | C=C(C)C(=O)OCCC#Cc1ccc(-c2ccc(OC(=O)C(=C)C)cc2)cc1 | 80
64 | c1ccc(CCC2=NOC3(CCNCC3)C2)cc1 | 106 to 109
65 | O=C(CCN1CCCCC1)Nc1cccc(NC(=O)Nc2ccc(N(CCCl)CCCl)cc2)c1 | 108 to 110
66 | CNC(=NS(C)(=O)=O)NCCSCc1csc(NC(N)=NCC(F)F)n1 | 85 to 89
67 | CN(C)Cc1nnc2n1-c1ccc([N+](=O)[O-])cc1C(c1ccccc1)=[N+]([O-])C2 | 228 to 230
68 | O=C(O)C1CCN(CC2CN(CC3CCN(c4ccncc4)CC3)C(=O)O2)CC1 (stereo not drawn) | 94 to 96
